Like-named read-outs stand apart in the source and are kept apart here.
Columns and labels:
[1] = test system: nAChR subtypes mediating nicotine-evoked [^3H]-dopamine overflow
Description: [^3H]-Dopamine overflow from superfused striatal slices. […] Striatal coronal slices (500 μm, 4-6 mg) were obtained and incubated for 30 minutes in Krebs' buffer (in mM: 118 NaCl, 4.7 KCl, 1.2 MgCl2, 1 NaH2PO4, 1.3 CaCl2, 11.1 glucose, 25 NaHCO3, 0.11 L-ascorbic acid and 0.004 disodium EDTA, pH 7.4, saturated with 95% O2/5% CO2) in a metabolic shaker at 34° C. Slices were incubated with 0.1 μM (final concentration) of [^3H]-dopamine during the latter 30 minutes of the 60-minute incubation period. Each slice was transferred to a glass superfusion chamber maintained at 34° C. and superfused (1 ml/min) with Krebs' buffer containing nomifensine (10 μM) and pargyline (10 μM) to inhibit [^3H]-dopamine reuptake after release into the extracellular space, ensuring that [^3H]-overflow primarily represented [^3H]-dopamine. Sample collection (5-minute; 5 mL) began after 60 minutes of superfusion. […] At the end of the experiment, each slice was solubilized, and the [^3H]-content of the tissue determined. Release during each minute was normalized for total tissue [^3H]-content. Analog-induced intrinsic activity and inhibitory activity were determined using slices from the same rat (repeated-measures design).
The amount of [^3H] in each sample was calculated by dividing the total [^3H] collected in each sample by the total in the tissue at the time of sample collection (defined as fractional release). […] Data were analyzed by weighted, least squares regression analysis of the sigmoidal concentration-effect curves to obtain EC50 and IC50 values.
Striatal slices (500 μm, 4-6 mg) were incubated for 30 minutes in Krebs' buffer (in mM: 118 NaCl, 4.7 KCl, 1.2 MgCl2, 1 NaH2PO4, 1.3 CaCl2, 11.1 glucose, 25 NaHCO3, 0.11 L-ascorbic acid and 0.004 disodium EDTA, pH 7.4, saturated with 95% O2/5% CO2) in a metabolic shaker at 34° C. Slices were incubated with 0.1 μM (final concentration) [^3H]DA during the latter 30 minutes of the 60-minute incubation period. Each slice was transferred to a glass superfusion chamber maintained at 34° C. and superfused (1 ml/min) with Krebs' buffer containing nomifensine (10 μM) and pargyline (10 μM) to inhibit [^3H]DA reuptake and metabolism, respectively, after release into the extracellular space, ensuring that [^3H]overflow primarily represents [^3H]DA. Sample collection (5-minute; 5 ml) began after 60 minutes of superfusion. […] Thus, the ability of these analogs to elicit intrinsic activity (evoke [^3H]DA overflow) was determined. At the end of the experiment, each slice was solubilized and [^3H]content of the tissue determined. Release during each minute was normalized for total [^3H]content of the slice. Analog-induced intrinsic activity and inhibitory activity were determined using slices from the same rat (repeated-measures design).
Fractional release was calculated by dividing the total tritium collected in each sample by the total tritium in the tissue at the time of sample collection. […] Typically, data were analyzed by weighted, least squares regression analysis of sigmoidal concentration-effect curves to obtain EC50 and IC50 values.

[2] = target: nAChR mediating nicotine-evoked [^3H]DA release (α3β2* receptor subtype); assay type: cell-based, rat; details: read-out: IC50, S-(−)-nicotine-evoked [^3H]DA release
Description: Slices were rinsed with 15 mL of fresh buffer and incubated for an additional 30 minutes in fresh buffer containing 0.1 μM [^3H]DA (6 slices/3 ml). Subsequently, slices were rinsed with 15 ml of fresh buffer and transferred to a glass superfusion chamber.
Radioactivity in the superfusate and tissue samples was determined by liquid scintillation spectroscopy. […] Basal [^3H]outflow was calculated from the average of the tritium collected in the two five minute samples just before addition of the bis-alkyl pyridino analog. […] [^3H]Overflow was calculated by subtracting the [^3H]outflow during an equivalent period of prestimulation from the values in samples collected during and after drug exposure. Inasmuch as the radiolabelled compounds were not separated and identified, the tritium collected in superfusate is referred to as either [^3H]outflow or [^3H]overflow, rather than as [^3H]DA.

[3] = target: T1, Rat Striatal Nicotinic Acetylcholine Receptors ([^3H]nicotine binding sites) (Rattus norvegicus, UniProt P09483+P12390); test: biochemical; details: read-out: Ki, specific binding of [^3H]-nicotine
T1 construct: Striata from two rats were dissected, pooled, and homogenized; from tissue; host or cells: rat striatum membranes
T1 sequence (P09483 31-630): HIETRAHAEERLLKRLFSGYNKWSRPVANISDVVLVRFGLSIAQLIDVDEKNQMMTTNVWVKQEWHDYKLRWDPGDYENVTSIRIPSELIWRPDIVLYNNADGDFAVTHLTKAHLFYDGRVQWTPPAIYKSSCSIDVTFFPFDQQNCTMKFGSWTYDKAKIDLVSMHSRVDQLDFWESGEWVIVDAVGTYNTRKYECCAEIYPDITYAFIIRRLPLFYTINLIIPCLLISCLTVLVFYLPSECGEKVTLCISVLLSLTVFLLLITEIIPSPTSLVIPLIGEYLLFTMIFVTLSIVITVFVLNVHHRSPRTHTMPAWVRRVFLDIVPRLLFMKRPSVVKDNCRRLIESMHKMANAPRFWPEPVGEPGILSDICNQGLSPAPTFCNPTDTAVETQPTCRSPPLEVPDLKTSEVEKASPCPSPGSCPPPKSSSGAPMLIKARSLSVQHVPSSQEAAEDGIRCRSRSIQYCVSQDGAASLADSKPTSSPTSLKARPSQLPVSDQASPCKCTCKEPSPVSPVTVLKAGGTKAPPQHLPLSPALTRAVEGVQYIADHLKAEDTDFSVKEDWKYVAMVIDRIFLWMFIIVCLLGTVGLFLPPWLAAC
T1 sequence (P12390 25-500): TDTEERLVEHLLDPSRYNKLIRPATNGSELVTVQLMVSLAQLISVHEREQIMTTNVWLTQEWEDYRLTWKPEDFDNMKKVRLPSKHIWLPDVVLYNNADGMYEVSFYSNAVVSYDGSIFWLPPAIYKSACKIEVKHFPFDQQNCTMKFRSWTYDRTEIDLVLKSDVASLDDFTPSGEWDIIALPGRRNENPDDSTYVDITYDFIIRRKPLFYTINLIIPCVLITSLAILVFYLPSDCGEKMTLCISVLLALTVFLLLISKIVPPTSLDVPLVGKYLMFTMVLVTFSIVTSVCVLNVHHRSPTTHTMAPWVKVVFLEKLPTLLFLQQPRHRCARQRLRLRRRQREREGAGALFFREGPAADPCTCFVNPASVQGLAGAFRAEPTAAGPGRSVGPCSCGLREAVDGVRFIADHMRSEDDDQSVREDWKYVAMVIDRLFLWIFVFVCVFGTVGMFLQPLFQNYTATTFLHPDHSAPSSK
Description: Striata from two rats were dissected, pooled, and homogenized with a Tekmar polytron in 10 volumes of ice-cold modified Krebs-HEPES buffer (20 mM HEPES, 118 mM NaCl, 4.8 mM KCl, 2.5 mM CaCl2, 1.2 mM MgSO4, adjusted to pH 7.5). The homogenates were incubated at 37° C. for five minutes and centrifuged at 15,000 g for 20 minutes. The pellet was resuspended in ten volumes of ice-cold MilliQ water, incubated for five minutes at 37° C., and centrifuged at 15,000 g for 20 minutes The second pellet was then resuspended in ten volumes of fresh ice-cold 10% Krebs-HEPES buffer, incubated at 37° C., and centrifuged at 15,000 g for 20 minutes. The latter sequence of resuspension, incubation, and centrifugation was repeated. The pellet was frozen under fresh 10% Krebs-HEPES buffer and stored at −40° C. until assay. Upon assay, the pellet was resuspended in the Krebs-HEPES buffer, incubated at 37° C. for five minutes, and centrifuged at 15,000 g for 20 minutes. The final pellet was resuspended in 3.6 ml ice-cold MilliQ water which provided for approximately 200 μg protein per 100 μl aliquot. Competition assays were performed in duplicate in a final volume of 200 μl Krebs-HEPES buffer containing […] Tris buffer (pH 7.5 at 4° C.). […] After a 90 minute incubation at 4° C., reactions were terminated by dilution of the samples with 3 ml of ice-cold Krebs-HEPES buffer followed immediately by filtration through Whatman GF/B glass fiber filters (presoaked in 0.5% polyethyleneimine) using a Brandel Cell Harvester. Filters were rinsed three times with 3 ml of ice-cold Krebs-HEPES buffer, transferred to scintillation vials, and 5 ml scintillation cocktail (Research Products International Corp., Mt. Prospect, Ill.) added. […] Binding parameters were determined using the weighted, least squares non-linear regression.

α4β2* nAChRs = α4β2* nAChRs (Rattus norvegicus, UniProt P09483+P12390)
Chain of α4β2* nAChRs (P09483 31-630): as the sequence (P09483 31-630) above
Chain of α4β2* nAChRs (P12390 25-500): as the sequence (P12390 25-500) above
Description: Whole brain, excluding cortex and cerebellum, was homogenized in 20 ml of ice-cold buffer, containing (in mM): 2 HEPES, 11.8 NaCl, 0.48 KCl, 0.25 CaCl2 and 0.12 MgSO4, pH 7.5. Homogenate was centrifuged (25,000 g, 15 minutes, 4° C.). Pellets were resuspended in 20 ml of buffer and incubated at 37° C., for ten minutes, cooled to 4° C. and centrifuged (25,000 g, 15 minutes, 4° C.). Pellets were resuspended and centrifuged using the same conditions. Final pellets were stored in assay buffer, containing (in mM): 20 HEPES, 118 NaCl, 4.8 KCl, 2.5 CaCl2, and 1.2 MgSO4) pH 7.5 at −70° C. Upon use, final pellets were resuspended in ˜20 ml assay buffer. […] Control was in the absence of analog. […] Incubations proceeded for 60 minutes at room temperature using 96-well plates and were terminated by harvesting on Unifilter-96 GF/B filter plates presoaked in 0.5% polyethylenimine, using a Packard FilterMate harvester.
After washing five times with 350 μl ice-cold assay buffer, filter plates were dried (60 minutes, 49° C.), bottom-sealed, and filled with Packard's MicroScint 20 cocktail (40 μl/well). After 60 minutes, filter plates were top-sealed, and radioactivity determined using a Packard TopCount. Protein concentrations were determined using bovine serum albumin as the standard.
Whole brain was homogenized in 20 ml of ice-cold buffer (in mM: 2 HEPES, 11.8 NaCl, 0.48 KCl, 0.25 CaCl2, and 0.12 MgSO4, pH 7.5). Homogenates were centrifuged (25,000 g, 15 minutes, 4° C.). Pellets were resuspended in 20 ml of buffer and incubated at 37° C., for 10 minutes, cooled to 4° C. and centrifuged (25,000 g, 15 minutes, 4° C.). Pellets were resuspended and centrifuged again using the same conditions. Final pellets were stored at −70° C. in assay buffer (in mM: 20 HEPES, 118 NaCl, 4.8 KCl, 2.5 CaCl2, and 1.2 MgSO4, pH 7.5). Upon use, final pellets were resuspended in ˜20 ml assay buffer. […] Control was in the absence of analog. […] Incubation proceeded for 60 minutes at room temperature using 96-well plates and was terminated by harvesting on Unifilter-96 GF/B filter plates, presoaked in 0.5% polyethylenimine, using a Packard FiterMate harvester. After washing 5× with 350 μl ice-cold assay buffer, filter plates were dried (60 minutes, 49° C.), bottom-sealed, and filled with Packard's MicroScint 20 cocktail (40 μl/well). After 60 minutes, filter plates were top-sealed, and radioactivity determined. Protein concentration was determined using BSA as the standard.

[4] = target: T2, α7-type neuronal nicotinic acetylcholine receptors (Rattus norvegicus, UniProt Q05941); test: biochemical; details: read-out: Ki, [^3H]MLA binding
T2 construct: Rat brain was dissected into the whole brain tissue without cortex, striatum and cerebellum; from tissue; host or cells: rat brain (without cortex, striatum, cerebellum) membranes
T2 sequence (Q05941 23-502): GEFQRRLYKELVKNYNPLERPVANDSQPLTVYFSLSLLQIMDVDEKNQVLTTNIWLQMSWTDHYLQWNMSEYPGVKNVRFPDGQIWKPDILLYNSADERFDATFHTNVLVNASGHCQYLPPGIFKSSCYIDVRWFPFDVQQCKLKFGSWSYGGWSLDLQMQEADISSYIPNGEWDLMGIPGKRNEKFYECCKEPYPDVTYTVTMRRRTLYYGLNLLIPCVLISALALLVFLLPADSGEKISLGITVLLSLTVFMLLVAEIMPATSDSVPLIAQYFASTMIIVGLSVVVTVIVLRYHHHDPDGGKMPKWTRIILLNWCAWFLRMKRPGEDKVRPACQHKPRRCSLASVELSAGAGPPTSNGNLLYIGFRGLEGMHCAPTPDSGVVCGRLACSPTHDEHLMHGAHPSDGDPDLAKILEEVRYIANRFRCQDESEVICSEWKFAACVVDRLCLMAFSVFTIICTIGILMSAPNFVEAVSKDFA

[5] = target: T2, α7-type neuronal nicotinic acetylcholine receptors; assay type: binding; details: read-out: Ki, [^3H]MLA binding
Description: Rat brain was dissected into the whole brain tissue without cortex, striatum and cerebellum and was frozen in liquid nitrogen and stored at −70° C. until use.
The brain tissue was homogenized with a Tekmar Polytron (setting 40) in 20 volumes of ice-cold hypotonic buffer (2 mM HEPES, 14.4 mM NaCl, 0.15 mM KCl, 0.2 mM CaCl2 and 0.1 mM MgSO4, pH=7.5). The homogenate was incubated at 37° C. for ten minutes and centrifuged at 25,000×g for 15 minutes at […] The pellet was washed three times more by resuspension in the 20 volumes of the same buffer and centrifugation at the above parameters. The final pellet was stored at −20° C. under 4.6 ml of the incubation buffer and was suspended just before the incubation with radioligand.
[^3H]MLA (25.4 Ci/mmol) was purchased from Tocris Cookson Ltd., Bristol, U.K. Binding was performed in duplicate, in a final volume of 250 μl of the incubation medium, containing 20 mM HEPES, 144 mM NaCl, 1.5 mM KCl, 2 mM CaCl2, 1 mM MgSO4 and 0.05% BSA, pH=7.5. Reaction was initiated by the addition of 100 μl of membrane suspension to the samples containing a desired concentration of test compounds and […] [^3H] MLA (final concentration) and incubated for 2 hours at room temperature. […] The binding reaction was terminated by dilution of samples with 3 ml of ice-cold incubation buffer followed by immediate filtration through presoaked in 0.5% polyethylenimine glass fiber filters (S&S, grade #32) using a Brandel harvester system. Filters were rinsed three times with 3 ml of ice-cold buffer, transferred to scintillation-vials and 4 ml of scintillation cocktail was added. Protein was measured using the Bradford dye-binding procedure with bovine serum albumin as the standard.

[6] = read-out: Nicotine-evoked [^3H]DA Overflow IC50, Table 6, mean (standard error)
[7] = read-out: Nicotine-evoked [^3H]DA Overflow IC50, Table 5, mean (95% confidence interval)
[8] = rat striatal slices, nicotine 10 μM
[9] = rat brain membranes, 2.5 nM [^3H]-MLA
[10] = rat brain membranes, […] [^3H]-MLA
[11] = rat striatal membranes, 3 nM [^3H]-nicotine
[12] = read-out: Nicotine-evoked [^3H]DA Overflow IC50

Compound | IC50 [2, 8] [µM] | Ki [3, 11] [µM] | other results
CCCCCCCCCCCC[n+]1ccc2c(c1)[C@@H]1[C@H](CC2)CCN1C [ACDD] |  |  | IC50 [1, 6]: 0.22 µM
CCCCCCCCC[n+]1cccc2c1CCC1CCN(C)C21 (centres unmarked) [BCN] |  |  | IC50 [1, 6]: 0.31 µM
CCCCCCCCCCC[n+]1cccc2c1CCC1CCN(C)C21 (centres unmarked) [BCU] |  |  | IC50 [1, 6]: 0.04 µM
CO[C@H]1CC=C2CCN3CCC4=C(CC(=O)OC4)[C@]23C1 [DHβE, dihydro-β-erthyroidine, reference compound] |  |  | IC50 [2]: 1 µM; Ki [3]: 0.15 µM
CCCCCCCCCCCC[n+]1cccc(C2CCCN2C)c1 (centres unmarked) [NDDNI] |  |  | Ki (α4β2* nAChRs): 0.14 µM; potency relative to DHβE as inhibitor of nAChRs mediating nicotine-evoked dopamine release [1]: at least two orders of magnitude more potent; IC50 ([1]; read-out: IC50, inhibition of nicotine-evoked [^3H]dopamine release/overflow): 0.009 µM
CCCCCCCCCCCC[n+]1ccccc1 [NDDPI] |  |  | IC50 [1, 7]: 0.26 µM
CCCCCCCCCCCCCCCCCCCC[n+]1ccccc1 [NEcPB] |  |  | IC50 [1, 7]: 0.12 µM
CCCCCCCC[n+]1cccc(C)c1 [NOPiI] |  |  | IC50 ([1]; read-out: Nicotine-evoked [^3H]DA Overflow IC50, Table 9, mean (standard error)): 1 µM
CCCCCCCCCCCCCCC[n+]1ccccc1 [NPDPB] |  |  | Ki (α4β2* nAChRs; read-out: [^3H]Nicotine Binding Ki, Table 5, mean (95% confidence interval)): 38 µM; IC50 [1, 7]: 0.32 µM
c1ccc2c[n+](CCCCCCCCCC[n+]3ccc4ccccc4c3)ccc2c1 [bIQDI, N,N′-Decane-1,10-diyl-bis-isoquinolinium Diiodide] | 2.62 |  | Ki [4, 9]: 5.5 µM
c1ccc2c[n+](CCCCCC[n+]3ccc4ccccc4c3)ccc2c1 [bIQHxI, N,N′-Hexane-1,6-diyl-bis-isoquinolinium Diiodide] | > 100 | 17.9 | Ki [5, 10]: 16 µM
c1ccc2c[n+](CCCCCCCCC[n+]3ccc4ccccc4c3)ccc2c1 [bIQNB, N,N′-Nonane-1,9-diyl-bis-isoquinolinium Dibromide] | 1.61 | > 100 | Ki [4, 9]: 13.1 µM
c1ccc2c[n+](CCCCCCCC[n+]3ccc4ccccc4c3)ccc2c1 [bIQOI, N,N′-Octane-1,8-diyl-bis-isoquinolinium Diiodide] | 51.9 | > 100 | Ki [4, 9]: 8.55 µM
c1ccc2c[n+](CCCCCCCCCCC[n+]3ccc4ccccc4c3)ccc2c1 [bIQUB, N,N′-Undecane-1,11-diyl-bis-isoquinolinium Dibromide] | 0.49 | 9.02 | Ki [4, 9]: 24.1 µM
CN1CCCC1c1ccc[n+](CCCCCCCCCC[n+]2cccc(C3CCCN3C)c2)c1 (centres unmarked) [bNDI, N,N′-Decane-1,10-diyl-bis-nicotinium Diiodide] | > 100 | 0.28 | Ki [4, 9]: > 100 µM
CN1CCC[C@H]1c1ccc[n+](CCCCCC[n+]2cccc([C@@H]3CCCN3C)c2)c1 [bNHxI, N,N′-Hexane-1,6-diyl-bis-nicotinium Diiodide] | > 100 |  | 
CN1CCC[C@H]1c1ccc[n+](CCCCCCCCC[n+]2cccc([C@@H]3CCCN3C)c2)c1 [bNNB, N,N′-Nonane-1,9-diyl-bis-nicotinium Dibromide] | > 100 | 4.31 | 

Compound | IC50 [2, 8] [µM] | Ki [3, 11] [µM] | other results
CN1CCC[C@H]1c1ccc[n+](CCCCCCCC[n+]2cccc([C@@H]3CCCN3C)c2)c1 [bNOI, N,N′-Octane-1,8-diyl-bis-nicotinium Diiodide] | 19.1 | 1.5 | 
CN1CCC[C@H]1c1ccc[n+](CCCCCCCCCCC[n+]2cccc([C@@H]3CCCN3C)c2)c1 [bNUB, N,N′-Undecane-1,11-diyl-bis-nicotinium Dibromide] | > 100 | 0.37 | 
c1cc[n+](CCCCCCCCCC[n+]2ccccc2)cc1 [bPDI, N,N′-Decane-1,10-diyl-bis-pyridinium Diiodide] | > 1 | 18.6 | 
c1cc[n+](CCCCCC[n+]2ccccc2)cc1 [bPHxI, N,N′-Hexane-1,6-diyl-bis-pyridinium Diiodide] | > 100 | 97.8 | 
c1cc[n+](CCCCCCCCC[n+]2ccccc2)cc1 [bPNB, N,N′-Nonane-1,9-diyl-bis-pyridinium Dibromide] | > 100 | 24.1 | 
c1cc[n+](CCCCCCCC[n+]2ccccc2)cc1 [bPOI, N,N′-Octane-1,8-diyl-bis-pyridinium Diiodide] | > 1 | 33.9 | 
c1cc[n+](CCCCC[n+]2ccccc2)cc1 [bPPeI, N,N′-Pentane-1,5-diyl-bis-pyridinium Diiodide] | > 100 | > 100 | 
c1cc[n+](CCCCCCCCCCC[n+]2ccccc2)cc1 [bPUB, N,N′-Undecane-1,11′-diyl-bis-pyridinium Dibromide] | > 100 | 14.4 | Ki [4]: 50.2 µM
c1ccc2c(c1)ccc[n+]2CCCCCCCCCC[n+]1cccc2ccccc21 [bQDI, N,N′-Decane-1,10-diyl-bis-quinolinium Diiodide] | 8.99 |  | Ki [4, 9]: 7.32 µM
c1ccc2c(c1)ccc[n+]2CCCCCC[n+]1cccc2ccccc21 [bQHxI, N,N′-Hexane-1,6-diyl-bis-quinolinium Diiodide] | > 100 | > 100 | Ki [5, 10]: 13.3 µM
c1ccc2c(c1)ccc[n+]2CCCCCCCCC[n+]1cccc2ccccc21 [bQNB, N,N′-Nonane-1,9-diyl-bis-quinolinium Dibromide] | 17.3 | 20.1 | Ki [4, 9]: 3.4 µM
c1ccc2c(c1)ccc[n+]2CCCCCCCC[n+]1cccc2ccccc21 [bQOI, N,N′-Octane-1,8-diyl-bis-quinolinium Diiodide] | 10.7 |  | Ki [4, 9]: 2.01 µM
c1ccc2c(c1)ccc[n+]2CCCCCCCCCCC[n+]1cccc2ccccc21 [bQUB, N,N′-Undecane-1,11-diyl-bis-quinolinium Dibromide] | 12 | 38.3 | Ki [4, 9]: 2.44 µM
N,N′-Decane-1,10-diyl-bis-picolinium Diiodide [bPiDI] |  |  | IC50 [2]: 0.03 µM; Ki [5]: > 100 µM; Ki [3]: > 100 µM; IC50 [1, 12]: 0.03 µM
N,N′-Undecane-1,11-diyl-bis-picolinium Dibromide [bPiUB] |  |  | IC50 [2]: 1.61 µM; Ki [5]: > 100 µM; IC50 [1, 12]: 1.61 µM
α-Bungarotoxin [reference compound] |  |  | Ki [5]: 0.0286 ± 0.0054 µM

From patent US20080287490A1, “Bis-pyridino containing compounds for the use in the treatment of CNS pathologies” (UNIVERSITY OF KENTUCKY RESEARCH FOUNDATION, priority 2005, published 2008)
